For test [1], the target named is T1, Helios (Homo sapiens, UniProt Q96SW2+Q9UKS7).
T1 construct: fluorescently labelled antibodies against Helios and Ikaros; endogenous in cells; host or cells: Jurkat cells
In words: Helios Cellular Degradation Assay (flow cytometry, Helios-PE antibody staining, 72 h). Format: cell-based. As to conditions: Jurkat cells, 72 h incubation, flow cytometry; for Dmax: Jurkat, read-out: Helios Dmax. As to the method:
(§1) Helios Cellular Degradation Assay
(§2) Jurkat cells were plated at 80,000 cells/well in 40 μL RPMI+10% FBS in a 384 well cell culture plate prior to using acoustic dispensing technology for adding compound of interest. Cell cultures were incubated for 72 h at 37° C. and 5% CO2. In order to facilitate analysis, cell cultures were spun down at 200 rpm for 5 min and the supernatant was discarded. After shaking the plate to dislodge the cell pellet, cells were resuspended in 50 μL of Fixation Buffer (eBioScience FoxP3 buffer set 0000) for 60 min at room temperature. After centrifuging and discarding the supernatant, cells were permeabilized with 50 μL of Permeabilization buffer (eBioScience FoxP3 buffer set 00-5523-00) for 10 min at room temperature. Following permeabilization, cells were spun down and the supernatant was replaced with 20 μL fluorescently labelled antibodies against Helios and Ikaros or corresponding Isotype controls in 1× Permeabilization buffer (Ikaros-Alexa488 [Biolegend, Cat #368408, 1:50], Helios-PE [CST, Cat #29360, 1:50]) and staining reactions were incubated for 1 h at room temperature; protected from light. Subsequently, 30 μL of 1× Permeabilization buffer was added prior to centrifuging the cells and discarding the supernatant. Stained cells were resuspended in 25 μL of flow cytometry staining buffer (PBS+0.2% BSA) and analyzed using an Intellicyt Ique Plus flow cytometer.
as §2, with “00-5523-00)” for “0000)”
A general note: In flow cytometry, cells or beads pass a laser one at a time.

Test [2] has as its target T2, Ikaros (Homo sapiens, UniProt Q13422).
T2 construct: fluorescently labelled antibodies against Helios and Ikaros; endogenous in cells; host or cells: Jurkat cells
In words: Helios Cellular Degradation Assay, Ikaros readout (flow cytometry, Ikaros-Alexa488 antibody staining, 72 h). Type of test: cell-based. As to conditions: Jurkat cells, 72 h incubation, flow cytometry; for Dmax: Jurkat, read-out: Ikaros Dmax. As to the method:
as §1, §2
as §2, with “00-5523-00)” for “0000)”

“And” between values parts separate entries of the source, which are not always exact repeats. Equal entries are not always repeated.

T1 sequence (Q9UKS7 whole entry): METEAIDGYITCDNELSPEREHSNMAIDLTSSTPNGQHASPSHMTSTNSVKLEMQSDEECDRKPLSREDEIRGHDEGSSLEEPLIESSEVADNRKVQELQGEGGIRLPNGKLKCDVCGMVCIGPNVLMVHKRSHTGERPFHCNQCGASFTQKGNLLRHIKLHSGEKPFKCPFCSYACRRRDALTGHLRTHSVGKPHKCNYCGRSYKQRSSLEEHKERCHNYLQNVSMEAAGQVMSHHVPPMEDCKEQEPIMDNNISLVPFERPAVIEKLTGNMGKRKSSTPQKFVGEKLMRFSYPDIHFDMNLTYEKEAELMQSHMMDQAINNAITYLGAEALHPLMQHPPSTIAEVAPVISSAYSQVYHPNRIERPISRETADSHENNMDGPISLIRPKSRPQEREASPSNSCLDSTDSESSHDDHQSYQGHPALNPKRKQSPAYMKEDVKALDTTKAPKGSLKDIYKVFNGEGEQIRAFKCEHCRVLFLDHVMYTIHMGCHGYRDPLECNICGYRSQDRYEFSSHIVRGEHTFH
T1 sequence (Q96SW2 whole entry): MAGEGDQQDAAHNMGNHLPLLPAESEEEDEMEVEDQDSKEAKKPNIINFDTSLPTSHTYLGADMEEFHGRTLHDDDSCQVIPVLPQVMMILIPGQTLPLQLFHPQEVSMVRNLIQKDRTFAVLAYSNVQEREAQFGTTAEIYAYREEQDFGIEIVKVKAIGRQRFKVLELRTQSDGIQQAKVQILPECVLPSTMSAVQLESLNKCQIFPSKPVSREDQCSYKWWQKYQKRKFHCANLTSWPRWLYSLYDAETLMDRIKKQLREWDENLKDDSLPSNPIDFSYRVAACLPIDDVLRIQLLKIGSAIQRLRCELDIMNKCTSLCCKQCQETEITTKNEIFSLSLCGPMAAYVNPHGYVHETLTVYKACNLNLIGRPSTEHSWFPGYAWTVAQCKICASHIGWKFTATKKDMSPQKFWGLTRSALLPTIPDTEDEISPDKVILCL
T1 sequence (Q16531 whole entry partner): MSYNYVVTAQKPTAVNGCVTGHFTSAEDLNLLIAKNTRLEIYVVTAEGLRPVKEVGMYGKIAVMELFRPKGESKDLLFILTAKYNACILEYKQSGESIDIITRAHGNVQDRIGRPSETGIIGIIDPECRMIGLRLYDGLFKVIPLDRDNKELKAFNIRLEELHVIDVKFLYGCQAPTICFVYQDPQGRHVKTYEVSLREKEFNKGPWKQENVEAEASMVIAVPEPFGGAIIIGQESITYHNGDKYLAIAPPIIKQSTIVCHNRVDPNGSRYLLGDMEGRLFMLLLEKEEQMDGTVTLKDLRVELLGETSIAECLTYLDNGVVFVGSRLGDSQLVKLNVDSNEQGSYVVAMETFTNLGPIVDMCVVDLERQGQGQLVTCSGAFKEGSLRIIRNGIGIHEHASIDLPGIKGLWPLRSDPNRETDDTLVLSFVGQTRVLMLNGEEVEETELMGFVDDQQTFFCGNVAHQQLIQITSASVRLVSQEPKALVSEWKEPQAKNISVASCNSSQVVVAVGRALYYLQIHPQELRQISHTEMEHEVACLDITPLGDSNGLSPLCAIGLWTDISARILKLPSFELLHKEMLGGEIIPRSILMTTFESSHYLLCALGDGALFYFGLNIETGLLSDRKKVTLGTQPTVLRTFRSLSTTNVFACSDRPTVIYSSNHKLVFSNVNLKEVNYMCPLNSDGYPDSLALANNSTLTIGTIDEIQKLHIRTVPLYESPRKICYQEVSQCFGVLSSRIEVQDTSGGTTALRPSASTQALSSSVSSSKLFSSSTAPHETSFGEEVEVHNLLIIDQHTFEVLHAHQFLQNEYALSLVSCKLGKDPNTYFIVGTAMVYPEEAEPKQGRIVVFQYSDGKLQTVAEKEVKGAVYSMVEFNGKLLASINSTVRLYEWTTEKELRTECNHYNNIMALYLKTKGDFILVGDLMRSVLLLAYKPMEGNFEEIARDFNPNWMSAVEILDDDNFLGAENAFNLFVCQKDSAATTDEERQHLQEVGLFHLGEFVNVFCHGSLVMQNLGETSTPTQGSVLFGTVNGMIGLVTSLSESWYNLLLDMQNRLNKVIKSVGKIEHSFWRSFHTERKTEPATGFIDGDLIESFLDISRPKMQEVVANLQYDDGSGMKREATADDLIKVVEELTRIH
T2 sequence (Q96SW2 whole entry partner): as the sequence (Q96SW2 whole entry) above
T2 sequence (Q16531 whole entry partner): as the sequence (Q16531 whole entry partner) above
T2 sequence (Q13422 whole entry): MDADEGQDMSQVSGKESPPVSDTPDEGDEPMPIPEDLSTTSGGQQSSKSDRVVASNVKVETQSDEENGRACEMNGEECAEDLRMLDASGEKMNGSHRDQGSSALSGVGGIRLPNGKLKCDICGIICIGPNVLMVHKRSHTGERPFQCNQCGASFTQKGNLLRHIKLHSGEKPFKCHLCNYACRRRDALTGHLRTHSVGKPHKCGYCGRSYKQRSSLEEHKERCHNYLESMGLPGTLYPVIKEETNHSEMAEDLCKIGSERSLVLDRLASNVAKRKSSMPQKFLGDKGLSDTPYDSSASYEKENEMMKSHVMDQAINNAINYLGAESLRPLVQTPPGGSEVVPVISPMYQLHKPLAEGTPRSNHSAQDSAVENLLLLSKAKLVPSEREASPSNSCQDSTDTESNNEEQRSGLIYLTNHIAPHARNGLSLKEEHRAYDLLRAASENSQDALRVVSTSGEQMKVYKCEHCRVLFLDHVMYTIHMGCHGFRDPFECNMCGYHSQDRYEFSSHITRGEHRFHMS

Turning to `O=C1CCC(N2Cc3cc(-c4cc(CNCc5ccccc5)ccn4)ccc3C2=O)C(=O)N1` (stereo not shown) [Example 2, 3-(5-(4-((benzylamino)methyl)pyridin-2-yl)-1-oxoisoindolin-2-yl)piperidine-2,6-dione], the DC50 was 11 nM in test [1] and greater than 10000 nM in test [2]. The Dmax in test [1] is 92%; in test [2], 16%.
As to `CC1(C)CCN1Cc1ccnc(-c2ccc3c(c2)CN(C2CCC(=O)NC2=O)C3=O)c1` (stereo not shown) [Example 52, 3-(5-(4-((2,2-dimethylazetidin-1-yl)methyl)pyridin-2-yl)-1-oxoisoindolin-2-yl)piperidine-2,6-dione], in test [1], the DC50 is 300 nM and the Dmax came to 67%. In test [2], the 50% degradation concentration (DC50) was greater than 10000 nM and the Dmax is 10%.
The matching figures for `O=C1CCC(N2Cc3cc(-c4cc(CN5CCC5c5ccccc5)c(F)cn4)ccc3C2=O)C(=O)N1` (stereo not shown) [Example 189, 3-(5-(5-fluoro-4-((2-phenylazetidin-1-yl)methyl)pyridin-2-yl)-1-oxoisoindolin-2-yl)piperidine-2,6-dione]: 11 nM, 80%, greater than 10000 nM and 16%.
For `C[C@@H]1CCCN(Cc2ccnc(-c3ccc4c(c3)CN(C3CCC(=O)NC3=O)C4=O)c2)C1` (stereo partly drawn) [Example 75, 3-(5-(4-(((R)-3-methylpiperidin-1-yl)methyl)pyridin-2-yl)-1-oxoisoindolin-2-yl)piperidine-2,6-dione] the same measures were 14 nM, 94%, greater than 10000 nM and 10%.
For `CN(Cc1ccnc(-c2ccc3c(c2)CN(C2CCC(=O)NC2=O)C3=O)c1)CC1CCCC1` (stereo not shown) [Example 175, 3-(5-(4-(((cyclopentylmethyl)(methyl)amino)methyl)pyridin-2-yl)-1-oxoisoindolin-2-yl) piperidine-2,6-dione] the same measures were 78 nM, 78%, greater than 10000 nM and 7%.
As to `CC(C)N1CCN(Cc2ccnc(-c3ccc4c(c3)CN(C3CCC(=O)NC3=O)C4=O)c2)CC1` (stereo not shown) [Example 44, 3-(5-(4-((4-isopropylpiperazin-1-yl)methyl)pyridin-2-yl)-1-oxoisoindolin-2-yl)piperidine-2,6-dione], in test [1], the DC50 was greater than 10000 nM and the Dmax was found to be 36%. In test [2], the DC50 is greater than 10000 nM and the Dmax turned out to be 12%.
`O=C1CCC(N2Cc3cc(-c4cc(CNCc5csc(-c6ccccc6)n5)ccn4)ccc3C2=O)C(=O)N1` (stereo not shown) [Example 110, 3-(1-oxo-5-(4-((((2-phenylthiazol-4-yl)methyl)amino)methyl)pyridin-2-yl)isoindolin-2-yl)piperidine-2,6-dione]: in test [1], it took 48 nM to reach half-maximal degradation (DC50) and the Dmax came out at 71%. Also, in test [2], the DC50 was greater than 10000 nM and the Dmax was 7%.
The matching figures for `COc1cccc(CN(C)Cc2ccnc(-c3ccc4c(c3)CN(C3CCC(=O)NC3=O)C4=O)c2)c1` (stereo not shown) [Example 158, 3-(5-(4-(((3-methoxybenzyl)(methyl)amino)methyl)pyridin-2-yl)-1-oxoisoindolin-2-yl)piperidine-2,6-dione]: 256 nM, 74%, greater than 10000 nM and 3%.
For `CCN(CC)Cc1ccnc(-c2ccc3c(c2)CN(C2CCC(=O)NC2=O)C3=O)c1` (stereo not shown) [Example 50, 3-(5-(4-((diethylamino)methyl)pyridin-2-yl)-1-oxoisoindolin-2-yl)piperidine-2,6-dione] the same measures were 22 nM, 78%, greater than 10000 nM and 12%.
For `CC(C)(C)CNCc1ccnc(-c2ccc3c(c2)CN(C2CCC(=O)NC2=O)C3=O)c1` (stereo not shown) [Example 65, 3-(5-(4-((neopentylamino)methyl)pyridin-2-yl)-1-oxoisoindolin-2-yl)piperidine-2,6-dione] the same measures were 55 nM, 70%, greater than 10000 nM and 7%.
Turning to `CC(C)CCN(C)Cc1ccnc(-c2ccc3c(c2)CN(C2CCC(=O)NC2=O)C3=O)c1` (stereo not shown) [Example 180, 3-(5-(4-((isopentyl(methyl)amino)methyl)pyridin-2-yl)-1-oxoisoindolin-2-yl)piperidine-2,6-dione], in test [1], the DC50 was 352 nM and the Dmax was 87%. In test [2], the DC50 is greater than 10000 nM and the Dmax came out at 13%.
As to `CCNCc1ccnc(-c2ccc3c(c2)CN(C2CCC(=O)NC2=O)C3=O)c1` (stereo not shown) [Example 116, 3-(5-(4-((ethylamino)methyl)pyridin-2-yl)-1-oxoisoindolin-2-yl)piperidine-2,6-dione], in test [1], half-maximal degradation (DC50) was put at 25 nM and the Dmax is 88%. For the same compound, in test [2], the DC50 is greater than 10000 nM and the Dmax was determined as 12%.
Turning to `Cc1cc2c(cc1-c1cc(CN(C)C)ccn1)CN(C1CCC(=O)NC1=O)C2=O` (stereo not shown) [Example 194, 3-(5-(4-((dimethylamino)methyl)pyridin-2-yl)-6-methyl-1-oxoisoindolin-2-yl)piperidine-2,6-dione], in test [1], the DC50 is greater than 10000 nM, the “Helios Dmax” value was 5.2% and the Dmax worked out at 5.16%. Further, in test [2], the DC50 is greater than 10000 nM; the “Ikaros Dmax” value was 0.04% and 3%.
For the compound `CN(Cc1ccc(C(F)(F)F)cc1)Cc1ccnc(-c2ccc3c(c2)CN(C2CCC(=O)NC2=O)C3=O)c1` (stereo not shown) [Example 149, 3-(5-(4-((methyl(4-(trifluoromethyl)benzyl)amino)methyl)pyridin-2-yl)-1-oxoisoindolin-2-yl)piperidine-2,6-dione], in test [1], the DC50 was greater than 10000 nM and the Dmax is 17%. Also, in test [2], the DC50 was greater than 10000 nM and the Dmax came to 6%.
As to `NC(=O)CNCc1ccnc(-c2ccc3c(c2)CN(C2CCC(=O)NC2=O)C3=O)c1` (stereo not shown) [Example 100, 2-(((2-(2-(2,6-dioxopiperidin-3-yl)-1-oxoisoindolin-5-yl)pyridin-4-yl)methyl)amino) acetamide], in test [1], it took 6130 nM to reach half-maximal degradation (DC50) and the “Helios Dmax” value was 55%. Also, in test [2], the DC50 is greater than 10000 nM and the “Ikaros Dmax” value amounted to 6%.
As to `O=C1CCC(N2Cc3cc(-c4cc(CNCC5CCO5)ccn4)ccc3C2=O)C(=O)N1` (stereo not shown) [Example 129, 3-(5-(4-(((oxetan-2-ylmethyl)amino)methyl)pyridin-2-yl)-1-oxoisoindolin-2-yl)piperidine-2,6-dione], in test [1], it took 232 nM to reach half-maximal degradation (DC50) and the Dmax is 74%. In addition, in test [2], the DC50 was greater than 10000 nM and the Dmax came to 2%.
For `CC1CCC(C)N1Cc1ccnc(-c2ccc3c(c2)CN(C2CCC(=O)NC2=O)C3=O)c1` (stereo not shown) [Example 119, 3-(5-(4-((2,5-dimethylpyrrolidin-1-yl)methyl)pyridin-2-yl)-1-oxoisoindolin-2-yl)piperidine-2,6-dione] the same measures were 2360 nM, 53%, greater than 10000 nM and 3%.
For `CCCCNCc1ccnc(-c2ccc3c(c2)CN(C2CCC(=O)NC2=O)C3=O)c1` (stereo not shown) [Example 61, 3-(5-(4-((butylamino)methyl)pyridin-2-yl)-1-oxoisoindolin-2-yl)piperidine-2,6-dione] the same measures were 12 nM, 83%, greater than 10000 nM and 5%.

As usually defined, the DC50 is the concentration giving 50% degradation. Read a low DC50 as a more potent degrader. The Dmax is the largest share of the target that was removed.

Values taken from patent US11548870B2, “Compounds useful as inhibitors of helios protein” (Bristol-Myers Squibb Company, priority 2019, dated 2023).
